Reference: patent publication US20240415828A1, “TLR7 AGONIST AND COMBINATIONS FOR CANCER TREATMENT” (BIONTECH SE, priority 2021, published 2024)

Assays:
Human PBMCs = assay: In vitro human PBMC stimulation assay (IFNα, multiplexed CBA); assay type: cell-based; conditions: 24 h after stimulation, n=5
Procedure: FIG. 1. In vitro human PBMC stimulation assay. […] Data shown as mean±standard deviation (SD), n=5.
After performing a serial dilution of the test compounds (such as BNT411), 5 μL of each sample is transferred/pipetted to single wells of a 96-well-plate. As negative control, plasma which has been prepared from whole blood of each donor is used. Subsequently, 245 μL of RPMI-medium is added to each well, leading to a 1:50 dilution of each sample, named spiking solutions. The heparinized whole blood is pipetted to separate 96-well-plate. After seeding whole blood, the prepared spiking solutions are added: 190 μL of whole blood is seeded in each well and 10 μL of spiking solutions is added to get a final volume of 200 μL per well and additional 1:20 dilution of all samples. Finally, the plates are incubated at 37° C. and 5% CO2. After 24 h incubation the plates are centrifuged at 500×g for 5 min. The plasma of all samples is harvested, transferred to a new 96-well-plate and frozen at −15° C. to −25° C. until performing the CBA, but at least 3 h.
The CBA is performed with the frozen/thawed plasma samples according to the manufacturer's instructions for ProCarta multiplex kits. For evaluation of cytokine concentrations, assay duplicates of all samples are measured by using the luminex system. […]

[1] = system: CT26 colon carcinoma cells; assay: CT26 tumor model, BNT411 alone and with oxaliplatin (Example 4); assay type: in vivo, mouse
Procedure: FIG. 5. Anti-tumoral efficacy of BNT411 alone and in combination with oxaliplatin in a tumor mouse model. Mice (n=12 or 13 per group) subcutaneously inoculated with 2.5×10^5 CT26 colon carcinoma cells were used as tumor mouse model. Oxaliplatin was administered intraperitoneally (i.p.) (5 mg/kg, four times with 4 to 5 days between injections). BNT411 was administered i.v. at a dose level of 3 mg/kg eight times with 2 to 5 days interval between injections and at least 2 days after oxaliplatin therapy. Anti-tumor efficacy was evaluated by group mean tumor volumes in test versus control groups (vehicle only) on days 33 and 42 (at least 50% of test and control animals alive). IFNα levels in plasma were analyzed 1 h after first BNT411 administration and gp70+ T-cell populations in blood were analyzed on days 34 and 41. (A) Dosing schedule. (B) Graph showing the tumor volumes vs. days after inoculation. Group mean tumor volumes (±SEM (standard error of the mean)) for all live animals are shown. Treatment groups included nine to ten mice. Additionally, tumor volumes of animals that were euthanized due to tumor load were carried forward for as long as they were larger than the group median tumor volume (last observation carried forward (LOCF) values). Curves were discontinued for groups with less than 50% animals alive. (C) Graph showing IFNα serum level 60 min after first injection for the 4 groups (control (vehicle); BNT411 alone; oxaliplatin alone; BNT411 and oxaliplatin). IFNα levels in control and test groups are shown by vertical bars (±SEM), Statistical significance between groups is indicated by horizontal lines. P-value summary: ****=p≤0.0001; ***=p≤0.001; **=p≤0.01, […].
(§1) Serum levels of IFNα were measured by sandwich ELISA (Pbl Assay Systems) according to manufacturer's instructions.
BALB/c mice were inoculated s.c. with 2.5×10^5−5×10^5 CT26-WT into the flank, respectively. Once tumors reached palpable sizes, mice were randomly divided into treatment and control groups. Tumor volume was measured unblinded with a caliper and calculated using the formula (a×b^2)/2 (a being the largest and b being the smallest diameter of the tumor). Tumor growth was documented as mean tumor size with standard error disregarding single distant outliers. Treatment was initiated after 7-10 d with tumors having reached an average volume of about 10 mm^3. […]
Oxaliplatin was administered intraperitoneally (i.p.) (5 mg/kg, four times with 4 to 5 days between injections). […] Anti-tumor efficacy was evaluated by group mean tumor volumes in test versus control groups (vehicle only) on study days 33 and 42, (at least 50% of test and control animals alive). IFNα levels in plasma were analyzed 1 h after first BNT411 administration and gp70+ T-cell populations in blood on study days 34 and 41.

[2] = system: CT26 colon carcinoma cells; assay: CT26 tumor model, BNT411 alone (Example 3); assay type: in vivo, mouse
Procedure: FIG. 4. Anti-tumoral efficacy of BNT411 alone in a tumor mouse model. Mice (n=12 or 13 per group) subcutaneously inoculated with 5×10^5 CT26 colon carcinoma cells were used as tumor mouse model. BNT411 was administered i.v. at a dose level of 3 mg/kg eight times with 4 to 5 days interval (on days 14, 19, 23, 28, 33, 37, 42, and 47). A control group (n=13) received vehicle alone. Adaptive immunity was evaluated by analyzing gp70-antigen-specific T cell populations in blood and splenocytes 3 and 5 weeks after the first study drug administration. (A) Dosing schedule. (B) Graph showing the tumor volumes vs. days after inoculation. Group mean tumor volumes for all live animals are shown. Additionally, tumor volumes of animals that were euthanized due to tumor load were carried forward for as long as they were larger than the group median tumor volume (SEM: standard error of the mean; LOCF: last observation carried forward values).
as §1
BALB/c mice were inoculated s.c. with 2.5×10^5−5×10^5 CT26-WT into the flank, respectively. Once tumors reached palpable sizes, mice were randomly divided into treatment and control groups. Tumor volume was measured unblinded with a caliper and calculated using the formula (a×b^2)/2 (a being the largest and b being the smallest diameter of the tumor). Tumor growth was documented as mean tumor size with standard error disregarding single distant outliers. Treatment was initiated after 7-10 d with tumors having reached an average volume of about 10 mm^3. 3 mg/kg (75 μg/mouse; BALB/c mice) BNT411 was administered by i.v. injection to the retro-orbital venous plexus. Control groups received an equal volume of 100 μl saline vehicle (0.1% 1 M HCl, 0.1% 1 M NaOH, 99.8% isotonic NaCl solution pH 5.63).
Eight doses of BNT411 were administered i.v. at a dose level of 3 mg/kg eight times with 4 to 5 days interval (on days 14, 19, 23, 28, 33, 37, 42, and 47); cf., FIG. 4A. […] A control group (n=13) received vehicle alone. Adaptive immunity was evaluated by analyzing gp70-antigen-specific T cell populations in blood and splenocytes 3 and 5 weeks after the first study drug administration. Gp70 is the immune dominant CD8^+ T-cell recognized antigen of the CT26 tumor model.

`COCCc1nc2c(N)nc3ccccc3c2n1CCCCN(C(C)=O)C1CCOCC1` [BNT411] was tested, and the “amount of IFNα induced compared to imiquimod (R837), resiquimod (R848) and 852A” value (Human PBMCs) was “significantly higher amount”, the “concentrations inducing IFNα, fold lower compared to imiquimod (R837), resiquimod (R848) and 852A” value (Human PBMCs) was 10 to 30 fold and the “anti-tumor efficacy, T/C value” ([1]; BNT411 3 mg/kg i.v. eight times, oxaliplatin 5 mg/kg i.p. four times, group mean tumor volumes test vs control) was 65.8%. For the same compound, the “effect on tumor growth (conclusion)” value ([1]; mouse, in vivo) was “anti-tumor activity”, the “IFNα levels, BNT411 monotherapy group vs combination of BNT411 and oxaliplatin” value ([1]; two-way ANOVA) was “statistically significantly higher” and the “tumor growth inhibition, test/control value” ([2]; 3 mg/kg i.v. eight times, day 35) was 43.3%. For the same compound, the animals still alive ([2]; 3 mg/kg i.v., day 49, last day of the experiment) was 8 of 13, the “increase in blood IFNα levels compared with the control group” value ([2]; 1 h after the first dosing, 3 mg/kg i.v.) was 50 fold and the “frequency of gp70+ T-cells in blood” value ([2]; day 35) was 8.72%. For the same compound, the “frequency of gp70+ T-cells in splenocytes” value ([2]; day 50) was 0.76% and the “blood parameters (alanine transaminase, aspartate transaminase, creatine kinase, glutamate dehydrogenase, lactate dehydrogenase, bilirubin) vs control group” value ([2]; serum, day 19) was “comparable”.
